In patent publication US20060247862A1, “Determining cell cycle phase data” (priority 2003, published 2006):

Tested on: U2OS cells
Experiment: Effect of cell cycle blocking agents on GFP fluorescence from cell cycle phase marker using transiently transfected cells
Format: cell-based
Conditions: U2OS cells transiently transfected with cyclin B1 promoter/D-box/CRS-GFP construct; 24 hours exposure; compared to control cells (culture media alone); confocal imaging
Method: U2OS cells (ATCC HTB-96) were cultured in wells of a 96 well microtitre plate. Cells were transfected with a cell cycle reporter construct prepared according to Example 1, comprising a cyclin B1 promoter operably linked to sequences encoding the cyclin B1 D-box, the cyclin B1 CRS, and GFP in a pCORON4004 vector (Amersham Biosciences) using Fugene 6 (Roche) as the transfection agent.
Following 24 hours of culture, cells were exposed to the specific cell cycle blockers mimosine (blocks at G1/S phase boundary) or demecolcine (blocks in M phase). Control cells were exposed to culture media alone.
Cells were incubated for a further 24 hours and then analysed for nuclear GFP expression using a confocal scanning imager with automated image analysis (IN Cell Analysis System, Amersham Biosciences).

| SMILES | GFP fluorescence (nuclear GFP expression) from cell cycle phase marker |
| --- | --- |
| CN[C@H]1CCc2cc(OC)c(OC)c(OC)c2-c2ccc(OC)c(=O)cc21 [demecolcine] | increased fluorescence compared to control cells |
| NC(Cn1ccc(=O)c(O)c1)C(=O)O (centres unmarked) [mimosine] | decreased fluorescence compared to control cells |
